Experimental data published in ChEMBL document CHEMBL4765228, “Indole-like Trk receptor antagonists” (Eur J Med Chem, 2016).

Experiments:
[1] = target: Mitogen-activated protein kinase 14 (Homo sapiens) (UniProt Q16539); test: Inhibition of human p38-alpha assessed as residual activity at 0.1 uM relative to control
[2] = target: Tyrosine-protein kinase Lck (Homo sapiens) (UniProt P06239); test: Inhibition of human LCK assessed as residual activity at 0.1 uM relative to control
[3] = target: T1, Serine/threonine-protein kinase TBK1 (Homo sapiens) (UniProt Q9UHD2); test: Inhibition of human TBK1 assessed as residual activity at 1 uM relative to control
T1 sequence (whole entry): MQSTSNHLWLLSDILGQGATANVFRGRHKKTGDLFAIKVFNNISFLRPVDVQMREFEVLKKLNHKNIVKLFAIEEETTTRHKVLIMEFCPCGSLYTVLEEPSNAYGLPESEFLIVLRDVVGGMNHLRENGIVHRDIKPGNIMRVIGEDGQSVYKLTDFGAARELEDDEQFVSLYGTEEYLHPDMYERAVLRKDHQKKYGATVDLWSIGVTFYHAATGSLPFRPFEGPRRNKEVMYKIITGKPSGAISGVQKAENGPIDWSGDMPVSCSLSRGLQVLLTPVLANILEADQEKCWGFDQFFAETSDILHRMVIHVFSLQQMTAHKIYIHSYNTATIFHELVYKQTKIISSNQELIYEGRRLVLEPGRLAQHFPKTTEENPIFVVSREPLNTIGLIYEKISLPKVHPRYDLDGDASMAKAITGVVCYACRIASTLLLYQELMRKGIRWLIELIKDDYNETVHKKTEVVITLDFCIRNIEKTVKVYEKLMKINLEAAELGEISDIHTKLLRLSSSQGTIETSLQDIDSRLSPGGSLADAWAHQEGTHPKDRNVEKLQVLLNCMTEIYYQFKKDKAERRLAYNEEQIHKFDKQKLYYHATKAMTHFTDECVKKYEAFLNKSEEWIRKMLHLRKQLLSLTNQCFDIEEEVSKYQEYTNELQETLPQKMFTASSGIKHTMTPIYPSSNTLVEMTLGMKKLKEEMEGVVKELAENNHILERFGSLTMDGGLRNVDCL

[4] = target: Glycogen synthase kinase-3 beta (Homo sapiens) (UniProt P49841); test: Inhibition of human GSK3-beta assessed as residual activity at 1 uM relative to control
[5] = target: Ephrin type-A receptor 2 (Homo sapiens) (UniProt P29317); test: Inhibition of human EPHA2 assessed as residual activity at 1 uM relative to control
Sequence of Ephrin type-A receptor 2 (Homo sapiens) (P29317 whole entry): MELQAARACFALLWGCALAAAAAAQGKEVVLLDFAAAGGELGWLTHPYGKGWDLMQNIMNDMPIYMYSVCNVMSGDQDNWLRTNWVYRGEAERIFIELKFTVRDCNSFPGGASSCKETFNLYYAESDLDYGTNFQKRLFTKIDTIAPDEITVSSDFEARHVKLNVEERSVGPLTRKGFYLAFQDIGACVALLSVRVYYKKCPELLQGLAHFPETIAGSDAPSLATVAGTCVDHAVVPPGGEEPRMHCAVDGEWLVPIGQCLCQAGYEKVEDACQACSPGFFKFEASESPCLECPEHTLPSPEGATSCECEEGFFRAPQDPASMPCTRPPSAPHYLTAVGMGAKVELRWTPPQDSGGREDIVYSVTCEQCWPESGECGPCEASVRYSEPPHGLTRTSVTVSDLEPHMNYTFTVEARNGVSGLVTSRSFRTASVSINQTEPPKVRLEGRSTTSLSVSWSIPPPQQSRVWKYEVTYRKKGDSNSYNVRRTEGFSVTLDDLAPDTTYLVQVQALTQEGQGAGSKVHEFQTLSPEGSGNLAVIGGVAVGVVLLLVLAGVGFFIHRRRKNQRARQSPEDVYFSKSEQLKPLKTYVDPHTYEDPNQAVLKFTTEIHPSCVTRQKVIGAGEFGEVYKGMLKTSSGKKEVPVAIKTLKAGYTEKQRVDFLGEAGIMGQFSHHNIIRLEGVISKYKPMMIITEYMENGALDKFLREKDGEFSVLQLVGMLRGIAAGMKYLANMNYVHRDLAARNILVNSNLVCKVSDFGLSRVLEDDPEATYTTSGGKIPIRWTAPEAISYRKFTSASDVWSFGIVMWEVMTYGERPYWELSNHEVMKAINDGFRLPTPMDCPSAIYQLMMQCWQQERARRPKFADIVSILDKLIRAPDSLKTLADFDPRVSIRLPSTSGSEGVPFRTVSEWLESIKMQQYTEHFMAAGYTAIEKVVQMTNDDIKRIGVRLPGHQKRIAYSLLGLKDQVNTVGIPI

[6] = target: Rho-associated protein kinase 2 (Homo sapiens) (UniProt O75116); test: Inhibition of human ROCK2 assessed as residual activity at 0.1 uM relative to control
Sequence of Rho-associated protein kinase 2 (Homo sapiens) (O75116 whole entry, looked up): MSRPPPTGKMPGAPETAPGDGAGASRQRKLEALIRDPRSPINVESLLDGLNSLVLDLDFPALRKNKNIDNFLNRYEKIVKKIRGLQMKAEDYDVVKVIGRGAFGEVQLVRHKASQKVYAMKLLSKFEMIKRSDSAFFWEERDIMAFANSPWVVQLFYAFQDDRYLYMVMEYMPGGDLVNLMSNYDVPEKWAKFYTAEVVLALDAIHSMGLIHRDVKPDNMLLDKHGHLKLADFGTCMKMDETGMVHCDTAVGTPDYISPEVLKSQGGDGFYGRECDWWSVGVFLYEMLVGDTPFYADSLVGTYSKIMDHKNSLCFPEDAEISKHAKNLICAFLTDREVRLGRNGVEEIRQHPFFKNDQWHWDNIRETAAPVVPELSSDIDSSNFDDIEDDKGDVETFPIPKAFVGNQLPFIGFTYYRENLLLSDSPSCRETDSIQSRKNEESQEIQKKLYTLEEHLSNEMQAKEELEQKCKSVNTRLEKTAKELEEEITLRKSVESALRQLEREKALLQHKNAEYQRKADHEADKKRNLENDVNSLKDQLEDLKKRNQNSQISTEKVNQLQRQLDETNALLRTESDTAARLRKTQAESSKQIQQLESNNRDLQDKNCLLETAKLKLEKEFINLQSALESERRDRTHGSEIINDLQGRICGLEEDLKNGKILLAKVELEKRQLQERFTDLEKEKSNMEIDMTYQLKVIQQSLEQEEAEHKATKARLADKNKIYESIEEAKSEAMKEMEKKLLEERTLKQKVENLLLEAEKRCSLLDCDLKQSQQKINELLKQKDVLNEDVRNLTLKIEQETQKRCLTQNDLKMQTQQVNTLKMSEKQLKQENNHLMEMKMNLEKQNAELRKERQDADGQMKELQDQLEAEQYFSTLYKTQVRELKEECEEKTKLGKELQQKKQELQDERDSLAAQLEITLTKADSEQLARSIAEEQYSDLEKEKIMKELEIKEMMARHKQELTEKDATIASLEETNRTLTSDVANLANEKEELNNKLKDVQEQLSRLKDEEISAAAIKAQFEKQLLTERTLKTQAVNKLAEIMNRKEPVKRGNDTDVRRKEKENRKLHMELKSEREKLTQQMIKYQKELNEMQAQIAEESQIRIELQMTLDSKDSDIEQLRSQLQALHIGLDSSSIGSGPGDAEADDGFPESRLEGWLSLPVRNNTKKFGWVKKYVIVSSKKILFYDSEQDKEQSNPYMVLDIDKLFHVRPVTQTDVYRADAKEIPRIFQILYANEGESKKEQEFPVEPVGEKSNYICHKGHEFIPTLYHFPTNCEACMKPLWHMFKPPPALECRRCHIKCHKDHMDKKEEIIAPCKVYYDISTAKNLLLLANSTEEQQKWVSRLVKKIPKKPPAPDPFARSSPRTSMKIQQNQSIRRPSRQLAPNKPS

[7] = target: Receptor tyrosine-protein kinase erbB-4 (Homo sapiens) (UniProt Q15303); test: Inhibition of human ERBB4 assessed as residual activity at 1 uM relative to control
[8] = target: Protein kinase C alpha type (Homo sapiens) (UniProt P17252); test: Inhibition of human PKCalpha assessed as residual activity at 1 uM relative to control
[9] = target: Serine/threonine-protein kinase pim-1 (Homo sapiens) (UniProt P11309); test: Inhibition of human PIM1 assessed as residual activity at 1 uM relative to control
Sequence of Serine/threonine-protein kinase pim-1 (Homo sapiens) (P11309 whole entry, looked up): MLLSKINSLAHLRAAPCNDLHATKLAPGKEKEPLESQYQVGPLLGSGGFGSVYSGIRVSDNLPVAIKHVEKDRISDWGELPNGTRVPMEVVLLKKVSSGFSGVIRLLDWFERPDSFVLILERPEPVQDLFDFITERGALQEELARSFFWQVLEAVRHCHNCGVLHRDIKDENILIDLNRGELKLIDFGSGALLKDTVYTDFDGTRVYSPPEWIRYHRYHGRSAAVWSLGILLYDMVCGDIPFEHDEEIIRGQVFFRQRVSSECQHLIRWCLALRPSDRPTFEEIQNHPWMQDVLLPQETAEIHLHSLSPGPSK

[10] = target: T2, Mitogen-activated protein kinase kinase kinase 7 (Homo sapiens) (UniProt O43318); test: Inhibition of human MAP3K7 assessed as residual activity at 1 uM relative to control
T2 sequence (whole entry): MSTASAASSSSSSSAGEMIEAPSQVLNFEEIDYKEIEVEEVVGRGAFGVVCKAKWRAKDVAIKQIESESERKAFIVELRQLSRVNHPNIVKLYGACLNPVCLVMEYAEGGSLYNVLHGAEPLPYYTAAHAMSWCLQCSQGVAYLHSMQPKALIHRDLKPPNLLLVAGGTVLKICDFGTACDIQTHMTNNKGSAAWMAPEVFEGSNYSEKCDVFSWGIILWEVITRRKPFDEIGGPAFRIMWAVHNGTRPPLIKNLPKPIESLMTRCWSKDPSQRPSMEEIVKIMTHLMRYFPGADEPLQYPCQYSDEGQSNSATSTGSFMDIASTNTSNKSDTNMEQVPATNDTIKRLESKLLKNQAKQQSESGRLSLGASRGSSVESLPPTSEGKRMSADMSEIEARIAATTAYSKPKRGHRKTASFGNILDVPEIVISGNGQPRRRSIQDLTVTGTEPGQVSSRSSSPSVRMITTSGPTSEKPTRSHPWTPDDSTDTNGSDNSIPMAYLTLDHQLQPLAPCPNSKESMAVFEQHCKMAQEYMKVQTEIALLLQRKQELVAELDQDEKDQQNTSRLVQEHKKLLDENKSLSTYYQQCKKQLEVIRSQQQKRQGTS

[11] = target: T3, Interleukin-1 receptor-associated kinase 4 (Homo sapiens) (UniProt Q9NWZ3); test: Inhibition of human untagged IRAK4 assessed as residual activity at 1 uM relative to control
T3 sequence (whole entry): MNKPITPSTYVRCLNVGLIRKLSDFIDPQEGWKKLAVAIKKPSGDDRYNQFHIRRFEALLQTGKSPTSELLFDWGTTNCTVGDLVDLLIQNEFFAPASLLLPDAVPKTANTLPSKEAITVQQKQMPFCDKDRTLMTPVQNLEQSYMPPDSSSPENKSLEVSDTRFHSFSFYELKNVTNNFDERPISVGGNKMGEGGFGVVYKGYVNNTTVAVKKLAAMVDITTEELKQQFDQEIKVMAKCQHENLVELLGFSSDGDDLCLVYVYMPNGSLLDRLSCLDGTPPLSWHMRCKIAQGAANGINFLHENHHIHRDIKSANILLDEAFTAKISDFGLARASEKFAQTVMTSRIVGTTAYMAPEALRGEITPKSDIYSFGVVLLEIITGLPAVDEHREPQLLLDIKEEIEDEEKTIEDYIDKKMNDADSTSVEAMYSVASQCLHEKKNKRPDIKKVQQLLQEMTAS

[12] = target: Myosin light chain kinase, smooth muscle (Homo sapiens) (UniProt Q15746); test: Inhibition of human MYLK assessed as residual activity at 1 uM relative to control
[13] = target: Serine/threonine-protein kinase PAK 4 (Homo sapiens) (UniProt O96013); test: Inhibition of human PAK4 assessed as residual activity at 0.1 uM relative to control
Sequence of Serine/threonine-protein kinase PAK 4 (Homo sapiens) (O96013 whole entry, looked up): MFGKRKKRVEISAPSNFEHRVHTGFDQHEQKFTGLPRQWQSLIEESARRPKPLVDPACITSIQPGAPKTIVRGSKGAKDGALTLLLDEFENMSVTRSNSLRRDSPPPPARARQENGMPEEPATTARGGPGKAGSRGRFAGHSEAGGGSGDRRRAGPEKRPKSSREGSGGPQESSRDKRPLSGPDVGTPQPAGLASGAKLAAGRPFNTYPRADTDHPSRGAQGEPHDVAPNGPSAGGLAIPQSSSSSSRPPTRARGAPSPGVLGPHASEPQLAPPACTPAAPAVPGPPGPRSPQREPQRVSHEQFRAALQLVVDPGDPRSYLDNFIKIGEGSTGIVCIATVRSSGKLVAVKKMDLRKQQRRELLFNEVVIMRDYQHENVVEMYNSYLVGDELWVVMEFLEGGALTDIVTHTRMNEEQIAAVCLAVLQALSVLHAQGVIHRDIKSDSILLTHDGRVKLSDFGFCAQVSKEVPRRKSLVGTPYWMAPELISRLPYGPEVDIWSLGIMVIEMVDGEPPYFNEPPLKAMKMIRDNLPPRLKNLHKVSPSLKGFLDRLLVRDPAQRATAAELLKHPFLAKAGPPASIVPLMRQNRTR

[14] = target: 3-phosphoinositide-dependent protein kinase 1 (Homo sapiens) (UniProt O15530); test: Inhibition of human PDK1 assessed as residual activity at 0.1 uM relative to control
[15] = target: Dual specificity mitogen-activated protein kinase kinase 1 (Homo sapiens) (UniProt Q02750); test: Inhibition of human wild type MEK1 assessed as residual activity at 1 uM relative to control
Sequence of Dual specificity mitogen-activated protein kinase kinase 1 (Homo sapiens) (Q02750 whole entry): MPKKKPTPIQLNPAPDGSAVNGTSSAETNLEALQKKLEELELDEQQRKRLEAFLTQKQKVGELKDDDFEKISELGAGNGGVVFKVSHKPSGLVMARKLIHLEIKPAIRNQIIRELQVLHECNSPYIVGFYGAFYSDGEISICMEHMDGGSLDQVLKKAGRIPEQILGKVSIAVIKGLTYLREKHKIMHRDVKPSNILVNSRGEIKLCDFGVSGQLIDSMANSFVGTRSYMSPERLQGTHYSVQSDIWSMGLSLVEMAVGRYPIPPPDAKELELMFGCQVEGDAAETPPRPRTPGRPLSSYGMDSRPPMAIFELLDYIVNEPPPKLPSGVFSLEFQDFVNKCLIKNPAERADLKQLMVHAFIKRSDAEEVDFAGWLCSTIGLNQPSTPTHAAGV

[16] = target: T2, Mitogen-activated protein kinase kinase kinase 7 (Homo sapiens); test: Inhibition of human MAP3K7 assessed as residual activity at 0.1 uM relative to control
[17] = target: Mitogen-activated protein kinase kinase kinase 11 (Homo sapiens) (UniProt Q16584); test: Inhibition of human MAP3K11 assessed as residual activity at 1 uM relative to control

Sequence of Mitogen-activated protein kinase 14 (Homo sapiens) (Q16539 whole entry): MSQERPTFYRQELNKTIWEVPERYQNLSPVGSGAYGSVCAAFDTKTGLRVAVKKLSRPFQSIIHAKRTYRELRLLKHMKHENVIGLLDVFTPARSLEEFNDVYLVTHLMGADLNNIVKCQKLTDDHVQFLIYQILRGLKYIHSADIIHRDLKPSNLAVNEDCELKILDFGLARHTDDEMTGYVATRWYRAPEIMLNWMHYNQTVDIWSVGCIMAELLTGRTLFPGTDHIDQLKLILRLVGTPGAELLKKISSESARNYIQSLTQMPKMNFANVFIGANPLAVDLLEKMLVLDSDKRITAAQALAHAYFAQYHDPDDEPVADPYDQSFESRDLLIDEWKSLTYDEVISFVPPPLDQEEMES

Compound: COc1ccc2c(c1)c(/C=C1\C(=O)Nc3ccc(S(N)(=O)=O)cc31)cn2C
- Activity [1]: 106%
- Activity [2]: 65%
- Activity [3]: 55%
- Activity [4]: 83%
- Activity [5]: 89%
- Activity [6]: 99%
- Activity [7]: 87%
- Activity [8]: 102%
- Activity [9]: 88%
- Activity [10]: 89%
- Activity [11]: 20%
- Activity [12]: 90%
- Activity [13]: 77%
- Activity [14]: 93%
- Activity [15]: 71%
- Activity [16]: 93%
- Activity [17]: 38%

Compound: COc1ccc2c(c1)c(/C=C1\C(=O)Nc3ccc(S(=O)(=O)N(C)C)cc31)cn2C
- Activity [1]: 95%
- Activity [2]: 81%
- Activity [3]: 79%
- Activity [4]: 97%
- Activity [5]: 89%
- Activity [6]: 92%
- Activity [7]: 85%
- Activity [8]: 95%
- Activity [9]: 97%
- Activity [10]: 88%
- Activity [11]: 83%
- Activity [12]: 91%
- Activity [13]: 96%
- Activity [14]: 99%
- Activity [15]: 97%
- Activity [16]: 106%
- Activity [17]: 37%

Compound: CN(C)S(=O)(=O)c1ccc2c(c1)/C(=C/c1cn(C)c3ccc(O)cc13)C(=O)N2
- Activity [1]: 97%
- Activity [2]: 62%
- Activity [3]: 81%
- Activity [4]: 92%
- Activity [5]: 98%
- Activity [6]: 79%
- Activity [7]: 95%
- Activity [8]: 103%
- Activity [9]: 95%
- Activity [10]: 92%
- Activity [11]: 52%
- Activity [12]: 84%
- Activity [13]: 95%
- Activity [14]: 94%
- Activity [15]: 98%
- Activity [16]: 101%
- Activity [17]: 51%

Compound: CNS(=O)(=O)c1ccc2c(c1)/C(=C/c1cn(C)c3ccc(OC)cc13)C(=O)N2
- Activity [1]: 102%
- Activity [2]: 45%
- Activity [3]: 93%
- Activity [4]: 90%
- Activity [5]: 84%
- Activity [6]: 94%
- Activity [7]: 42%
- Activity [8]: 103%
- Activity [9]: 88%
- Activity [10]: 95%
- Activity [11]: 37%
- Activity [12]: 90%
- Activity [13]: 84%
- Activity [14]: 92%
- Activity [15]: 93%
- Activity [16]: 104%
- Activity [17]: 55%

Compound: Cn1cc(/C=C2\C(=O)Nc3ccc(S(N)(=O)=O)cc32)c2ccccc21
- Activity [1]: 107%
- Activity [2]: 64%
- Activity [3]: 58%
- Activity [4]: 92%
- Activity [5]: 90%
- Activity [6]: 76%
- Activity [7]: 101%
- Activity [8]: 94%
- Activity [9]: 93%
- Activity [10]: 63%
- Activity [11]: 3%
- Activity [12]: 90%
- Activity [13]: 74%
- Activity [14]: 90%
- Activity [15]: 59%
- Activity [16]: 85%
- Activity [17]: 12%

Compound: COc1ccc2[nH]cc(/C=C3\C(=O)Nc4ccc(S(N)(=O)=O)cc43)c2c1
- Activity [1]: 102%
- Activity [2]: 72%
- Activity [3]: 62%
- Activity [4]: 79%
- Activity [5]: 98%
- Activity [6]: 101%
- Activity [7]: 60%
- Activity [8]: 87%
- Activity [9]: 79%
- Activity [10]: 64%
- Activity [11]: 9%
- Activity [12]: 83%
- Activity [13]: 93%
- Activity [14]: 98%
- Activity [15]: 72%
- Activity [16]: 93%
- Activity [17]: 25%
